The target of assay [1] is T1, avidin (Gallus gallus, UniProt P02701).
T1 construct: mature chain without signal peptide
Put plainly: Enzyme-linked avidin binding assay, competition experiments. As to conditions: competitor 10 μM, co-incubation, avidin-HRP, paraformaldehyde-fixed DNA. The procedure:
Treatment of DNA with methylene blue leads to the oxidation of deoxyguanosine residues to 8-oxodeoxyguanosine. DNA (0.5 mg/ml in water) was incubated in the presence of methylene blue (20 μg/ml final concentration in 0.1 M tris, pH 8.5) in a petri dish on ice shielded from a white light source by 0.5 cm water in an upturned petri dish lid (light source to DNA distance was 3 cm). Irradiation was for 3 hours at which time solid sodium chloride was added to a final concentration of 1 M and the DNA precipitated with ethanol. The DNA was removed and dissolved in de-ionized water. The DNA was re-precipitated and washed twice more to remove any remaining methylene blue.
Avidin-horse radish peroxidase (avidin-HRP) (Sigma) binding to methylene blue-treated DNA was compared to its binding to untreated DNA. Treatment of DNA with methylene blue leads to the generation of oxidised base products including 8-oxodeoxyguanosine. Competition experiments were carried out to define the specificity of binding of avidin to DNA. Damaged and native DNA bind to ELISA plates and in initial experiments, native and methylene blue-treated double-stranded and single-stranded DNA were bound to ELISA plates (Immuno plate MAXISORP (RTM), Nunc) at 50 μg/ml in PBS (50 μl/well). However since it is difficult to quantify the amount of DNA remaining after the various procedures, Millipore MULTISCREEN (RTM)filtration plates were used in this experiment. Native and methylene blue-treated double-stranded and single-stranded DNA ([…] in water) was added to appropriate wells ([…]) of MULTISCREEN-HV 96-well plates. […] Following washing with PBS 3 times, detection of bound peroxidase-labelled avidin was performed using 50 μl/well of o-phenylenediamine (0.5 mg/ml in 0.05 M phosphate-citrate, pH 5.0, and containing 0.03% w/v sodium perborate as a substitute for H2 O2) as substrate; the reaction was stopped after 20 minutes at room temperature using 2M […] (25 μl/well) and the product determined spectrophotometrically at 492 nm. […]

Assay [2] concerns the target T1, avidin. Put plainly: Fluorescent binding assay (FBA) with avidin-FITCS. The conditions noted are these: for concentration at which avidin binding reached a maximum: base bound to a substratum of fixed cells, avidin-FITCS. Here is the method:
(§1) Cultures of IMR 32 cells were grown in 96-well plates as described above and allowed to differentiate. Untreated cultures were fixed and permeabilised as above to provide a substrate to which 8-oxodeoxyguanosinewould bind thus permitting FAAs to be performed. Various concentrations of either the normal or the oxidised base were incubated on these plates (100 μl/well) for 1 hour. The ELISA plates were then washed 3 times with PBS before visualising bound base with either avidin-conjugated FITCS (1:200 in PBS for 1 hour) or with a FITCS-conjugated anti-biotin monoclonal antibody (1:80 in PBS for 1 hour). The level of binding was quantified with a fluorescence plate reader (Denley, Billingshurst, U.K.), excitation 485 nm and emission 535 nm.

The test system of assay [3] is monoclonal antibody to biotin. The assay is described as follows: Fluorescent binding assay (FBA) with FITCS-conjugated anti-biotin monoclonal antibody. Further details: species or system goat. The conditions noted are these: base bound to a substratum of fixed cells. The procedure: Avidin-FITCS conjugate was from Sigma (A 2050), as was monoclonal, goat anti-biotin-FITCS conjugate antibody (clone number BN-34) (F4024).
as §1

Assay [4] has as its target T1, avidin. The assay is described as follows: Inhibition of avidin binding to hydrogen peroxide treated cells. The conditions noted are these: avidin conjugate preincubated with competitor; all at 100 μM (biotin 10 μM). The procedure: Cells were washed in warm PBS. Cultures were fixed and permeabilised with ice-cold methanol for 15 minutes, rehydrated in PBS before blocking with PBS containing 10% (w/v) normal goat serum (NGS). […] The control, PBS in the absence of competitor, was treated in parallel. […] Fixed cells were incubated with the solutions for 1 hour in the dark at room temperature. The slides were washed three times in PBS before coverslips were mounted on the slides using VECTORSHIELD (RTM) (Vector Laboratories, Peterborough, U.K.), a glycerol-based anti-bleaching mountant.

In assay [5] the test system is IMR 32 cells. The assay is described as follows: cells. The procedure:
After differentiation, media was carefully aspirated and prewarmed Hanks buffered salt solution (HBSS) added to each well (200 μl) with or without various concentrations of freshly prepared hydrogen peroxide. The cultures were incubated with hydrogen peroxide for 1 hour after which the HBSS was replaced with fresh media (α-MEM with 5% (v/v) HIFCS and 1% (v/v) non-essential amino acids) and allowed to recover for 24 hours under standard incubation conditions before cell death was assessed using the MTT assay and binding of avidin assessed by fluorescence analysis.
Cells were prefixed by the addition of 2% (w/v) paraformaldehyde (in phosphate buffered saline (PBS) at pH 7.4) for 15 mins after washing the cells with PBS. Cells were washed in warm PBS. Cultures were fixed and permeabilised with ice-cold methanol for 15 minutes, rehydrated in PBS before blocking with PBS containing 10% (w/v) normal goat serum (NGS). The blocking solution was washed off with PBS containing 0.2% (w/v) NGS.

Assay [6] has as its target T1, avidin. Put plainly: Capillary electrophoresis analysis of binding. The procedure: Capillary electrophoresis was performed using a Beckman […].) controlled by accompanying System Gold (RTM) software. All analyses were carried out using an untreated fused silica capillary of 57 cm total length and 75 μm internal diameter. […] Samples were then placed on ice until analysed by CE. The electrophoresis solution was 10 mM sodium tetraborate (pH 9.3) filtered through a 0.45 μm filter. Samples were loaded using positive pressure (nominal 0.5 psi) for 5 seconds at 25° C. The run time was 10 minutes under an applied voltage of 30 kV with a rise time of 0.17 minutes (approx. 10.2 seconds). Detection was by absorbence at 200 nm and comparison with known standards. Concentration of each compound was estimated from peak height.

Assay [7] concerns IMR 32 cells. Put plainly: UVA exposure with α-tocopherol preincubation, fluorescent assessment of avidin binding. Format: cell-based. As to conditions: 200 μM preincubation. The procedure:
(§2) Differentiated cells were exposed to UVA irradiation with or without preincubation with the lipid-phase antioxidant α-tocopherol. The level of UVA irradiation was monitored in each experiment with a radiometer. Antioxidant was added to the existing medium 24 hours prior to irradiation at a final concentration of 200 μM (stock made up immediately prior to use in ethanol). […] Medium was removed prior to irradiation and cells washed in HBSS. The cells were irradiated from above at room temperature. Controls were sham irradiated. The cells were fixed as described below.
Cells were washed in warm PBS. Cultures were fixed and permeabilised with ice-cold methanol for 15 minutes, rehydrated in PBS before blocking with PBS containing 10% (w/v) normal goat serum (NGS). […] DNA damage was visualised with avidin-conjugated fluorescein isothiocyanate (FITCS) (1:200 in PBS for 1 hour) or with a FITCS-conjugated anti-biotin monoclonal antibody (1:80 in PBS for 1 hour) for either fluorescence microscopy or for quantitative assessment with a fluorescence plate reader (Denley, Billingshurst, U.K.).

Assay [8] has as its system IMR 32 cells. The assay is described as follows: MTT assay after UVA exposure. Format: cell-based. The conditions noted are these: α-tocopherol pre-incubation, 24 hours post-irradiation. The procedure:
as §2

Molecules are shown by their SMILES.

T1 sequence (P02701 25-152): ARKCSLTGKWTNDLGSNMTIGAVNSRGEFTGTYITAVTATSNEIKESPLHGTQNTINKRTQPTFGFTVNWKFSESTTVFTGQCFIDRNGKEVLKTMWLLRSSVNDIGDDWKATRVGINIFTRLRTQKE

For `Nc1nc2c(ncn2[C@@H]2O[C@H](CO)[C@@H](O)[C@H]2O)c(=O)[nH]1` [guanosine], the “inhibition of avidin binding to double-stranded, methylene blue treated DNA” value (“inhibition of avidin binding” below) in assay [1] is “inhibited binding”.
With `Nc1nc2c([nH]c(=O)n2[C@H]2C[C@H](O)[C@@H](CO)O2)c(=O)[nH]1` [8-oxodeoxyguanosine], the “inhibition of avidin binding” value in assay [1] is listed as “greatest inhibition”. Also, in assay [2] (assuming 100% binding of 8-oxodeoxyguanosine to the substratum), the “theoretical sensitivity of avidin binding (detectable amount)” value is 10^4 molecules. In assay [2], the “concentration at which avidin binding reached a maximum” value is 10^-15 M. Besides, the “concentration at which binding of the monoclonal antibody to biotin reached a maximum” value in assay [3] is 10^-9 M. Further, in assay [4], the “inhibition of avidin-FITCS binding to hydrogen peroxide treated cells” value (from here on “inhibition of avidin-FITCS binding”) is reported as “inhibited binding”.
`Nc1nc2nc[nH]c2c(=O)[nH]1` [guanine]: the “inhibition of avidin binding” value in assay [1] is recorded as “inhibited binding”. In addition, the “inhibition of avidin-FITCS binding” value in assay [4] is “did not”.
`OO` [hydrogen peroxide]: the “hydrogen peroxide concentration at which the level of avidin binding plateaued” value in assay [5] (1 hour exposure, 24 hours recovery) was found to be 100 nM. Besides, in assay [5] (Homo sapiens, IMR-32, 1 h, read-out: hydrogen peroxide concentration at which avidin binding was statistically different from control), the minimal effective concentration came out at 0.01 µM.
Take `O=C(O)CCCC[C@@H]1SC[C@@H]2NC(=O)N[C@@H]21` [biotin]: the “recovery of unbound biotin after incubation with avidin” value in assay [6] (biotin 100 μM, various concentrations of avidin, theoretical values assume 4 biotin molecules per avidin) is given as “very close to the theoretical values expected”. Further, the “inhibition of avidin-FITCS binding” value in assay [4] is recorded as “prevented binding”.
Consider `Nc1nc2c(ncn2[C@H]2C[C@H](O)[C@@H](CO)O2)c(=O)[nH]1` [deoxyguanosine], for which the “concentration at which avidin binding reached a maximum” value in assay [2] was 10^-6 M. Also, the “concentration at which binding of the monoclonal antibody to biotin reached a maximum” value in assay [3] is on record as 10^-9 M.
Turning to `Nc1nc2[nH]c(=O)[nH]c2c(=O)[nH]1` [8-oxoguanine], the “rate of binding to avidin” value in assay [6] (purely chemical system, minimal preincubation) is recorded as “extremely rapid”.
Consider `Cc1c(C)c2c(c(C)c1O)CCC(C)(CCCC(C)CCCC(C)CCCC(C)C)O2` (stereo not drawn) [α-tocopherol], for which, in assay [7] (24 hours post-irradiation), the “effect on avidin binding to UVA irradiated cells, longer periods of irradiation” value is on record as “not effective in reducing binding” and the “effect on avidin binding to UVA irradiated cells, short periods of irradiation” value was “reduced the level of avidin binding”. For the same compound, the “effect on avidin binding over the range of irradiation times studied” value in assay [7] (multiple range ANOVA) was “significantly (p=0.003) reduced the binding of avidin”. Moreover, the “effect on UVA-induced increase in MTT metabolism” value in assay [8] is given as “prevented”.

(Values after patent US6309825A, “Analytical and therapeutic agents” (University of Leicester, priority 1995, dated 2001).)
